Reference: patent publication US11959104B2, “Methods of differentiating stem cell-derived ectodermal lineage precursors” (MEMORIAL SLOAN-KETTERING CANCER CENTER, priority 2016, dated 2024)

Columns and labels:
rodent GSK3β homologs = details: cited from earlier work
hPSCs = assay: Toxicity of KSR-protocol small molecule concentrations in E6 differentiation; format: cell-based, human; details: original KSR-protocol concentration used in E6
Source text: To transition these protocols into the more defined E6 media, we adapted hPSCs in E8 for multiple passages and simply replaced the KSR-based medium with an E6 based differentiation while maintaining factors and concentrations as described previously to trigger the 4 major ectodermal lineages (FIG. 9A). […] After determining an optimal non-toxic concentration for each of the small molecules we observed that NE formation under E6 conditions was equivalent to that obtained with KSR-based conditions. […] We compared the efficiency of generating PAX6 positive cells using either no small molecules, using dSMADi or using the single TGFβ inhibitor SB431542 (SB). We found robust PAX6 expression in the absence of dSMADi (˜40% of total cells on day 12 post induction). However, the percentage of cells expressing PAX6 was further improved upon addition of SB or dSMADi to nearly 90% and 80%, respectively (FIGS. 1E and 9B).

SIX1 placode cells = assay: Trigeminal placode induction by Wnt activation pulse; format: cell-based, human; details: additional pulse after the BMP pulse
Protocol: (§1) All differentiations starting from E8 were dissociated into single cells using EDTA and replated at high density in E8 with the ROCK inhibitor (Tocris). Cells were typically seeded at a density of 200,000 cells/cm^2 on Matrigel coated dishes. Switching from E8 to E6 triggered differentiations (i.e. d0). Neuroectoderm (NE) formation was generated by culturing the cells in E6 with […] and 500 nM LDN until d12. Neural Crest (NC) was first treated with […], 600 nM CHIR and 1 ng/ml BMP4 from d0-d2. At d2, cells were maintained in […] with 1.5 uM CHIR until d12. Lens placode was first treated with […] and 5 ng/ml BMP4 from d0-d2. At d2, cells were maintained in […] with 100 ng/ml FGF2 until d12. Trigeminal placode was first treated with […] and 5 ng/ml BMP4 from d0-d2. At d2, CHIR was added to the SB and BMP4 until d4. Finally, non-neural ectoderm (NNE) was treated with 10 nM SB, 10 nM SU5402 and 20 ng/ml BMP4 until d12.

[1] = test system: human pluripotent stem cells; assay: Neuroectoderm induction in E6 media, PAX6 positive cells (PAX6::H2B-GFP reporter); format: cell-based; details: day 12 post induction, without small molecules ~40%
Protocol: as §1, with “H9 ESCs (WA09) and modified reporter lines (passage 40-70) were cultured in the Knockout Serum Replacement (KSR) (Life Technologies) based media (DMEM-F12, 20% KSR, L-glutamate and 10 ng/ml FGF2) on mouse embryonic fibroblast feeders. KSR hPSCs were directly transferred to the E8 media (Life Technologies) coated with Vitronectin and adapted for 4-5 passages before differentiations were performed. KSR based differentiations were performed as previously described, neuroectoderm and neural crest (Mica et al., 2013), and placode and non-neural ectoderm ([…] et al., 2013). All” for “All”, “At d2, CHIR was added to the SB and BMP4 until d4. Finally, non-neural ectoderm (NNE) was treated with 10 nM SB, 10 nM SU5402 and 20 ng/ml BMP4 until d12.” left out

[2] = test system: Six1::H2B-GFP reporter line; assay: LOPAC small molecule screen and validation for enhanced CP induction; details: CP protocol after the addition of FGF2
Protocol: All differentiations starting from E8 were dissociated into single cells using EDTA and replated at high density in E8 with the ROCK inhibitor (Tocris). Cells were typically seeded at a density of 200,000 cells/cm^2 on Matrigel coated dishes. Switching from E8 to E6 triggered differentiations (i.e. d0). Neuroectoderm (NE) formation was generated by culturing the cells in E6 with 10 nM SB and 500 nM LDN until d12. Neural Crest (NC) was first treated with 10 nM SB, 600 nM CHIR and 1 ng/ml BMP4 from d0-d2. […] Lens placode was first treated with 10 nM SB and 5 ng/ml BMP4 from d0-d2. At d2, cells were maintained in 10 nM SB with 100 ng/ml FGF2 until d12. Trigeminal placode was first treated with 10 nM SB and 5 ng/ml BMP4 from d0-d2. At d2, CHIR was added to the SB and BMP4 until d4. Finally, non-neural ectoderm (NNE) was treated with 10 nM SB, 10 nM SU5402 and 20 ng/ml BMP4 until d12.

hPSC = assay: Cranial placode induction in E6 media, SIX1 positive cells, FGF addition; format: cell-based, human; details: added to E6 culture comprising SB431542 and BMP
Protocol: as §1

## Cc1c[nH]c(-c2cnc(NCCNc3ccc(C#N)cn3)nc2-c2ccc(Cl)cc2Cl)n1 [CHIR99021, 6-(2-(4-(2,4-dichlorophenyl)-5-(4-methyl-1H-imidazol-2-yl)pyrimidin-2-ylamino)ethylamino)nicotinonitrile]
Rodent GSK3β homologs
  IC50 values against rodent GSK3β homologs: nanomolar
hPSCs
  cell killing during differentiation: effectively killed the cells
SIX1 placode cells
  PAX3 expression in SIX1 placode cells: capable of triggering PAX3 expression

## NC(=O)c1ccc(-c2nc(-c3ccc4c(c3)OCO4)c(-c3ccccn3)[nH]2)cc1 [SB431542, 4-[4-(1,3-benzodioxol-5-yl)-5-(2-pyridinyl)-1H-imidazol-2-yl]-benzamide]
[1]
  percentage of cells expressing PAX6: ~90%

## FGF2: activator of FGF signaling
[2]
  Six1 positive cells: 34%
hPSC
  SIX1 positive CP cells: ~50%
